Measured values from ChEMBL document CHEMBL1126037, “4'-modified analogues of aristeromycin and neplanocin A: synthesis and inhibitory activity toward S-adenosyl-L-homocysteine hydrolase” (J Med Chem, 1992).
Activity calls are given as the source filed them. No cut-off for these calls is given here.

What was measured:
[1] = system: Adenosylhomocysteinase (Bos taurus)
[2] = target: Adenosylhomocysteinase (Homo sapiens) (UniProt P23526); details: Bos taurus
Description: Kinetic constant against bovine liver S-adenosyl-L-homocysteine hydrolase (AdoHcy); reversibleinhibitor

[3] = system: Adenosylhomocysteinase (Bos taurus); experiment: Inhibitory activity against bovine liver S-adenosyl-L-homocysteine hydrolase (AdoHcy); c = Inactive up to 100 uM
[4] = system: Adenosylhomocysteinase (Bos taurus); experiment: Kinetic constant against bovine liver S-adenosyl-L-homocysteine hydrolase (AdoHcy); c = Inactive up to 100 uM
[5] = target: Adenosylhomocysteinase (Homo sapiens) (UniProt P23526); details: Bos taurus; remark: listed apart in the source

Chain of Adenosylhomocysteinase (Homo sapiens) (P23526 2-432 limits assumed): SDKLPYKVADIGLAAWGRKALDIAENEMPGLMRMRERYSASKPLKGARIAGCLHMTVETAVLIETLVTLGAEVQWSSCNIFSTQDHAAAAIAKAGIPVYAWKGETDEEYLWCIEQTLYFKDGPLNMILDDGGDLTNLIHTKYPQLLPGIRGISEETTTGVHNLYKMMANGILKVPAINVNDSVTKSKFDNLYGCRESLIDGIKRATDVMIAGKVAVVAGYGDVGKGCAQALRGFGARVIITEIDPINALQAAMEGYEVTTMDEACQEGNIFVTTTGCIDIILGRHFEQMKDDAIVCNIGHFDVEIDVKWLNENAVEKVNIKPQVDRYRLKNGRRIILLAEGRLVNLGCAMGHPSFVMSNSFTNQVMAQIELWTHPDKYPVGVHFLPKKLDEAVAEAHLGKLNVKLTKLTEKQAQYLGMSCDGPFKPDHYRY

`C[C@@H]1C[C@@H](n2cnc3c(N)ncnc32)[C@H](O)[C@@H]1O` showed a k2 [1] of 0.025 min⁻¹.

Work on `Nc1ncnc2c1ncn2[C@@H]1CC[C@@H](O)[C@H]1O` yielded a k2 [1] of 0.109 min⁻¹.

Compound `C=C[C@H]1C[C@@H](n2cnc3c(N)ncnc32)[C@H](O)[C@@H]1O` has a k2 [1] of 0.053 min⁻¹.

With `Nc1ncnc2c1ncn2[C@@H]1C[C@H](c2ccccc2)[C@@H](O)[C@H]1O` the k2 [1] was 0.01 min⁻¹.

`C[C@H]1C[C@@H](n2cnc3c(N)ncnc32)[C@H](O)[C@@H]1O` was tested, and the k2 [1] was 0.039 min⁻¹.

`Nc1ncnc2c1ncn2[C@@H]1C=C[C@@H](O)[C@H]1O` gave a k2 [1] of 0.043 min⁻¹.

With `CC1=C[C@@H](n2cnc3c(N)ncnc32)[C@H](O)[C@@H]1O` the k2 [1] was 0.09 min⁻¹.

For `Nc1ncnc2c1ncn2[C@@H]1C[C@H](CO)[C@@H](O)[C@H]1O`, the k2 [2] was “Reversible inhibition”.

For `CCC1=C[C@@H](n2cnc3c(N)ncnc32)[C@H](O)[C@@H]1O`, the Ki [3] was “Inactive” and the k2 [4] was “inactive”.

Compound `Nc1ncnc2c1ncn2[C@@H]1C=C(CO)[C@@H](O)[C@H]1O` has a k2 [5] of 1.98 min⁻¹.

With `CC[C@H]1C[C@@H](n2cnc3c(N)ncnc32)[C@H](O)[C@@H]1O` the k2 [1] was 0.083 min⁻¹.
